How the values were obtained:
[1] = tested on: CRC cell lines (SW620, HT-29, HCT 116+/−p53, RKO, and LS411N); test: Alamar Blue cell viability assay, human CRC panel; type: cell-based; conditions: SW620, 72 hours
Description: FIGS. 4A-4F show AP-4-139B is efficacious as a single agent against human CRC in vitro and in vivo. FIG. 4A: Three CRC cell lines (HT-29, LS411N, and SW620) were treated with 10 μM of PET-16 or AP-4-139B for 48 hours. Cell were then subjected to viability assays using Trypan Blue exclusion. *** p<0.001. […] FIGS. 4B-4C: A panel of six CRC cell lines (SW620, HT-29, HCT 116+/−p53, RKO, and LS411N) were plated at a density of 1,000 cells per well in 96-well plates. The next day, cells were treated with the indicated inhibitors for 72 hours. Cells were then subjected to the Alamar Blue cell viability assays. Shown are representative IC50 values of an average of six technical replicates and two biological replicates. FIG. 4D: 2.5×10^6 HT-29 cells were injected subcutaneously into the right flank of NSG mice. Once tumors reached an approximate volume of 100 mm^3, mice were separated randomly into two groups: control vs. AP-4-139B. Mice were treated with 12.5 mg/kg AP-4-139B three times a week. All mice were euthanized 22 days after the start of treatment. Tumor volumes were recorded using digital calipers and using the formula v=length×width^2×0.52. *** p<0.001. n=10 mice per group. FIG. 4E: Immunohistochemistry (IHC) analysis of HT-29 xenograft tumors treated with AP-4-139B. Shown are representative images (4-6 random fields of view per condition) of Ki67 (proliferation) and Cleaved Lamin A (cell death). n=4 mice per group. Scale bar=100 μm. Respective IgG antibody was used as the negative control.

[2] = tested on: MC38 and HT-29 cells; test: Extracellular ATP release (CellTiter-Glo); type: cell-based; conditions: MC38 cells, increasing concentrations, 3 hours
Description: FIG. 6A: 1×10^6 MC38 cells were injected subcutaneously into the right flank of 6-8-week-old male C57Bl/6 mice. Once tumors reached an approximate volume of 100 mm^3, mice were treated with AP-4-139B (10 mg/kg) every 48 hours. 20 days after the start of treatment, tumors were excised, weighed, minced and digested. Tumor-infiltrating and splenic conventional CD4 (cCD4) (Live CD45^+ DUMP^− CD3^+CD4^+Foxp3^−), Tregs (Live CD45^+ DUMP^− CD3^+CD4^+Foxp3^+), CD8 (Live CD45^+ DUMP^− CD3^+CD8^+) T-cells, and Dendritic Cells (Live CD45^+ DUMP^− CD3^−CD11c^+MHCII^+) numbers were assessed by flow cytometry. * p<0.05, n.s. not significant. n=8 mice per group. FIG. 6B: MC38 and HT-29 cells were treated with the indicated concentrations of AP-4-139B for either 8 or 24 hours; media was collected and subjected to WB for HMGB1. Data shown are representative of three technical replicates. FIG. 6C: MC38 and HT-29 cells were treated with the indicated concentrations of AP-4-139B for three hours and then assayed for extracellular ATP release. Each graphical representation indicates the mean±the standard deviation of three independent experiments relative to control (DMSO-treated) cells.
FIG. 6D: MC38 cells were treated with 5 μM AP-4-139B for 24 hours and subjected to flow cytometry, using Alexa488-tagged calreticulin antibody. *** p<0.001, n=4 biological replicates performed in duplicate. FIG. 6E: MC38 cells were treated with increasing concentrations of AP-4-139B, G-TPP, 17-AAG or Metformin for 3 hours and then assayed for extracellular ATP release. Three independent cultures were assayed for each treatment, and DMSO-treated cells were used as internal controls. Error bars represent standard deviation (SD).
The XF Cell Mito Stress Test was performed. Briefly, HT-29 (10,000 cells/well), IMR90 (15,000 cells/well), and 1205Lu (15,000 cells/well) were plated in Seahorse 96-well cell culture microplates, treated with the respective inhibitors for 24 hours, and subjected to the Seahorse XF Cell Mito Stress Test, according to the manufacturer's protocol (Agilent Technologies). For extracellular HMGB1 release, 1×10^6 MC38 cells were plated in 10-cm dishes. The next day, cells were treated with the indicated concentrations of AP-4-139B for 8 or 24 hours in serum-free media. Media was collected and spun down at 2,000 rpm for 5 minutes to pellet any remaining cells or debris. Media was then transferred to Amicon Ultra 15, 10K tubes and spun down at 4,000 rpm for 45 minutes, according to the manufacturer's protocol. […] For extracellular ATP release, ATP was measured using the CellTiter-Glo Kit (Promega catalog #G7570). […] 10 μl of CellTiter-Glo Reaction Mix was then mixed with 10 μl of culture media; the luminescence signal was detected using a luminometer.

[3] = target: T1, full length human HSP70 (Homo sapiens, UniProt P0DMV8); test: HSP70 mediated ATPase assay (Transcreener ADP-FI); type: biochemical
T1 construct: Five μL of 30 nM full length human HSP70 in assay buffer
T1 sequence (P0DMV8 whole entry): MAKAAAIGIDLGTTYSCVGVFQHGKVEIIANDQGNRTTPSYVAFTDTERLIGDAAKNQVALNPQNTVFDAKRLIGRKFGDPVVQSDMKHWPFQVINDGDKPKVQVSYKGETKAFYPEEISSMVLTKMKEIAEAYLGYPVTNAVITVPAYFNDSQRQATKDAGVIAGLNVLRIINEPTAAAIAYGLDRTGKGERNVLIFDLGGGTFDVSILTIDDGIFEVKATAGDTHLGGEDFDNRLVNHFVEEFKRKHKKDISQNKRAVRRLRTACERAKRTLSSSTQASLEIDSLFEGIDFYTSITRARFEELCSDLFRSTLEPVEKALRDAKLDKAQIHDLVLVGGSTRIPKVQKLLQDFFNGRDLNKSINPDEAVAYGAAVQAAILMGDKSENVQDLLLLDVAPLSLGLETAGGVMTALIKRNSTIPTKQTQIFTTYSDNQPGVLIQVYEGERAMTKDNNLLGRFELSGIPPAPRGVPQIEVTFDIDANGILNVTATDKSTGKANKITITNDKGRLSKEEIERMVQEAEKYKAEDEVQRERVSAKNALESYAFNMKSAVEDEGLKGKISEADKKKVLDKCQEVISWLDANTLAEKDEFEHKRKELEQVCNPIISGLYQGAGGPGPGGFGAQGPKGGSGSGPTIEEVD
Description: FIGS. 1A-1D show ATPase inhibition and direct binding of a novel HSP70 inhibitor. FIG. 1A: Compounds AP-3-97 and AP-4-139B are direct inhibitors of HSP70. HSP70 mediated ATPase activity was assessed using the TRANSCREENER® ADP-FI assay. Five microliters of 30 nM purified human HSP70 in assay buffer was added to test compounds for 30 minutes, followed by addition of excess ATP. After 15 minutes, reactions were stopped and fluorescence was assessed on a plate reader. Data are normalized to percent inhibition, where 100% is the value in the absence of HSP70, and 0% is the value in the presence of HSP70. Compounds shown include PET-16 (positive control) and the novel HSP70 inhibitors AP-3-97 and AP-4-139B. VY-3-277 was used as a negative control. FIG. 1B: Compound AP-4-139B binds HSP70. Whole cell extracts (WCE) from H1299 cells were incubated with 10 μM Biotin or with a Biotin-labeled variant of AP-4-139B (Biotin-AP-4-139B) for 5 hours. Biotin-AP-4-139B containing complexes were captured using NeutrAvidin resins and separated by SDS-PAGE. The Coomassie-stained protein band of approximately 70 kDa was excised and subjected to tryptic digestion and liquid chromatography-tandem mass spectrometry, and identified to be HSP70. FIG. 1C: H1299 cells were pre-treated with 10 μM of VY-3-277, PET-16, or AP-4-139B for 1 hour prior to the addition of 10 μM Biotin-AP-4-139B for 5 hours. Biotin-AP-4-139B containing complexes were captured by NeutrAvidin resins and immunoblotted using the indicated antibodies following SDS-PAGE. Whole cell extracts (WCE) were examined for the expression of HSP70 (input) and GRP75 (input) by Western blot analysis. FIG. 1D: Compound AP-4-139B directly binds purified human HSP70. […] Data were analyzed using the evaluation software from Biacore and the resulting sensograms were exported and re-plotted in GraphPad Prism.
HSP70 mediated ATPase activity was measured using the Transcreener® ADP-FI assay (BellBrook Labs). […] After 30 minutes, fluorescence at 560/620 nm was measured using the Envision plate reader. […]

[4] = target: N-terminal HIS tagged HSP70 (Homo sapiens, UniProt P0DMV8); test: Small molecule binding to HSP70 using SPR (Biacore T200)
Chain of N-terminal HIS tagged HSP70 (P0DMV8 whole entry): as above
Description: SPR experiments were conducted using the Biacore T200. Approximately 20,000 RU of N-terminal HIS tagged HSP70 was immobilized on a multi-dentate NTA derivatized linear carboxylate sensor chip (NICH1500M, Xantec Bioanalytics). The running buffer was PBS containing 2 mM MgCl2, 0.05% Tween, and 5% DMSO. Test compounds were diluted at 20× final concentration in 100% DMSO and then diluted into running buffer without DMSO so that the DMSO concentrations in both the sample and the running buffer were similar. Flow rate was 30 μL/min, contact time for each sample concentration was 30 seconds, followed by a 60 second dissociation time. Data were analyzed using the Biacore evaluation software and the resulting sensograms exported and re-plotted in GraphPad Prism.
The next studies sought to determine whether AP-4-139B interacts directly with HSP70. To accomplish this, full-length His-tagged human HSP70 was used, and it was immobilized on a high affinity poly-Ni-NTA sensor chip for surface plasmon resonance experiments on a Biacore T200. This HSP70-loaded chip was incubated with AP-4-139B or the negative control VY-3-277. As a positive control the adenosine-derived HSP70 inhibitor Ver-155008 was used (Massey et al., Cancer Chemother Pharmacol. 2010 August; 66(3):535-45).

Row | Compound | sensitivity of SW620 cells [1] | ATP release, comparison of compounds [2] | further results
1 | O=c1[nH]cc(F)c(=O)[nH]1 [5-FU, 5-fluoro-uracil] | highly resistant | – | –
2 | C=CCNC1=C2C[C@@H](C)C[C@H](OC)[C@H](O)[C@@H](C)/C=C(\C)[C@H](OC(N)=O)[C@@H](OC)/C=C\C=C(/C)C(=O)NC(=CC1=O)C2=O [17-AAG, reference compound] | – | induced ATP release, albeit to a lesser extent | –
3 | O=S(=O)(NCCCCCC[P+](c1ccccc1)(c1ccccc1)c1ccccc1)c1ccc2c(c1)oc1ccccc12 [AP-3-97, (6-(Dibenzo[b,d]furan-3-sulfonamido)hexyl)triphenylphosphonium bromide] | – | – | inhibition of HSP70 ATPase activity (in words) [3]: markedly superior potency
4 | N#Cc1ccc(COC[C@H]2O[C@@H](n3c(NCc4ccc(Cl)c(Cl)c4)nc4c(N)ncnc43)[C@H](O)[C@@H]2O)cc1 [Ver-155008, reference compound] | – | – | binding to sensor chips loaded with HSP70 [4]: reproducibly bound in concentration-dependent manner
5 | CN(C)C(=N)N=C(N)N [metformin, reference compound] | – | induced ATP release, albeit to a lesser extent | –
6 | O=C1[O][Pt]2([NH][C@@H]3CCCC[C@H]3[NH]2)[O]C1=O [oxaliplatin] | highly resistant | – | –
